Measured values taken from patent US11026940B2, “Compositions for the mobilization, homing, expansion and differentiation of stem cells and methods of using the same” (Ampio Pharmaceuticals, Inc., priority 2013, dated 2021).

Tests used:
CXCL12 = CXCL12 transcription by MSC in hanging drop (3D) culture, RTPCR; type: cell-based, human; conditions: Actin normalization, 4 days
Protocol: (§1) This effect is more pronounced if the cells are grown directly on plastic in a 2D conformation. In this example, MSCs are cultured in hanging drop cultures in the presence of Ampion™ and then mRNA is evaluated by RTPCR.
(§2) Materials: • Passage 5 Bone marrow derived human mesenchymal stem cells (HUXMA-01001, Cyagen Biosciences, Sunnyvale Calif.) • Mesenchymal Stem Cell Chondrogenic Differentiation medium (GUXMX-90041, Cyagen Biosciences, Sunnyvale Calif.) • TheraPEAK MSCGM chemically defined Stem cell medium (190632 Lonza) • Lonza MSGM (contains serum) • 10 mM Cobalt chloride in saline, sterile filtered (Sigma) • Saline or 0.9% Sodium chloride for injection ZR Flush (Excelsior Medical, Neptune N.J.) • 0.2 μM syringe filters • Hepes buffered saline, Trypsin/EDTA, Trypsin neutralizing solution (Lonza reagent pack) • 182 cm^2 tissue culture flasks • pipettes and sterile tips • Tissue culture hood, humidified CO2 incubator, water or bead bath • 10 cm^2 petri dishes • Qiagen RNeasy plus spin columns (Qiagen 74134) • Qiagen RT^2 qPCR primer pairs for CXCR4, CXCL12, Collagen 2A1, MMP14, MMP13, Aggrecan, IGA4, GAPDH, and Actin B • Roche Sybr green I master mix and Invitrogen Superscript VILO master mix. • Roche 480 lightcycler Cell Expansion: • Passage 5 HUXMA cells were removed from liquid nitrogen storage and expanded in 182 cm^2 flasks containing 40 mls TheraPEAK MSCGM until 80-90% confluence. • Trypsinize cells using standard protocol and proceed to the next step. […] RNA Isolations and Analysis: • After 4 days, remove the plates from the incubator. • Wash spheroids from the lid with 5 mls of the warm PBS in the bottom of each plate and transfer to 15 ml conical centrifuge tubes. • Spin cells at 1000 RPM for 5 minutes and aspirate the solution. • To each tube, add 350 μl Qiagen RNeasy plus lysis buffer (with 2ME). • Transfer solution to Qiashredder columns and spin at 14,000 rpm for 2 minutes. • Proceed with RNeasy plus protocol following manufacturers recommendations. • Elute RNA from columns using 30 μl RNase free water. cDNA Synthesis and Real Time PCR: • First strand synthesis of cDNA from all samples was then performed following the recommended 20 μl total volume protocol using 10 μl isolated RNA. • All cDNA reactions were then diluted with 30 μl nuclease free water. • Real time PCR was then performed using 5 μl diluted cDNA, Roche Syber green master mix, and Qiagen RT^2 qPCR primer pairs (20 μl total volume). • Relative gene expression determined by delta deta Ct method. […]

[1] = tested on: Bone marrow derived human mesenchymal stem cells; test: Migration (invasion) assay using pretreated stem cells, transwell, calcein AM fluorescence; type: cell-based; conditions: for mean FU: cells pretreated 72 hours, migration 24 hours; for FU 1: replicate 1; for FU 2: replicate 2; for FU 3: replicate 3
Protocol: This experiment will be designed to establish if migration of MSC is altered as well.
• Passage 5 Bone marrow derived human mesenchymal stem cells (HUXMA-01001, Cyagen Biosciences, Sunnyvale Calif.) • TheraPEAK MSCGM chemically defined Stem cell medium (190632 Lonza) • Lonza MSGM, Gibco RPMI, Gibco Defined fetal bovine serum. • 10 mM Cobalt chloride in saline, sterile filtered (Sigma) • Saline or 0.9% Sodium chloride for injection ZR Flush (Excelsior Medical, Neptune N.J.) • 0.2 μM syringe filters • Hepes buffered saline, Trypsin/EDTA, Trypsin neutralizing solution (Lonza reagent pack) • 25 and 175 cm^2 tissue culture flasks • pipettes and sterile tips • Tissue culture hood, humidified CO2 incubator, water or bead bath • 8.0 um Thincert tissue culture inserts and 24 well tissue culture plates (Greiner) • 50 μg Calcein AM vials (BD Biosciences) • DMSO (Sigma) Cell Expansion: • Passage 5 HUXMA cells were removed from liquid nitrogen storage and expanded in 175 cm^2 flasks containing 40 mls TheraPEAK MSCGM until 80-90% confluence. • Trypsinize cells using standard protocol and proceed to the next step. Treatment of Cells: • Prepare the following working dilutions in saline for injection from the stocks listed above. • Saline • 800 uM Cobalt Chloride in saline • Neat Ampion • Warm dilutions and Lonza MSCGM to 37° C. in bead bath. • Prepare a cell suspension of HUXMA stem cells in warmed MSCGM medium. • Count and then bring up 250,000 from the cell suspension in 4 mls warmed MSCGM. • Add the diluted cell solution to a 25 cm^2 tissue culture flasks. • Add 1 ml of the appropriate working dilution to the flask. • Incubate at 37° C. and 5% CO2 for 72 hours. Invasion Assay: • Remove the cells from the flask with trypsin and place in 600 μl RPMI+0.5% FBS. • Add 200 μl of the resulting cell suspension to the upper chamber of thinserts (3 inserts per treatment group) resting in a 24 well tissue culture plate. • Add 600 μl RPMI+0.5% FBS to the bottom chamber of the transwell system. • Add 66 μl of one the following solutions to the bottom chamber for each treatment group. • 550 ng/ml SDF (final 50 ng/ml) • 110 ng/ml TGF beta3 (final 10 ng/ml) • Serum (final 10%) • Incubate the plate for 24 hours at 37° C. and 5% CO2. Labeling and Cell Detection. • Remove two calcein AM vials and add 20 μl DMSO. • Transfer the contents of both vials to 12.5 ml RPMI containing 0.2% BSA. • Place 450 μl of the calcein AM solution (8 μM) in each well of a 24 well tissue culture plate. • Transfer the inserts from above to the wells containing calcein AM and incubate 45 minutes at 37° C. and 5% CO2. • After loading the cells with calcein AM, transfer the inserts to 24 well tissue culture plate wells containing 450 μl trypsin EDTA and incubate for another 10 minutes. • Discard inserts then add 450 μl trypsin neutralizing solution to each well. • Transfer 250 μl of the resulting solution to a 96 well black, flat bottom plate well (each reaction in triplicate). • Read fluorescence at 485 nm excitation and 530 nm emission.

CXCR4 = CXCR4 transcription by MSC in hanging drop (3D) culture, RTPCR; type: cell-based, human; conditions: Actin normalization, 4 days
Protocol: as §1, §2

How did the “2-ΔΔCp vs saline, CXCL12” value (CXCL12) turn out when `[Cl][Co][Cl]` [Cobalt, Cobalt chloride] was run?
The value was 0.005.

What about the “regulation, CXCL12” value (CXCL12) of the same compound?
Its value is −219.79.

What about the “ΔΔCp vs saline, CXCL12” value (CXCL12) of the same compound?
The value was 7.78.

And the “ΔCp, CXCL12” value (CXCL12; hanging drop culture)?
Its value is 14.91.

What about the “% increase (migration vs saline)” value ([1]; chemoattractant 10% FBS) of the same compound?
Its value is 29.1%.

What about the “mean FU” value ([1]; chemoattractant 10% FBS) of the same compound?
The value was 343.27 FU.

What about the “FU 1” value ([1]; chemoattractant 10% FBS) of the same compound?
Its value is 346.49 FU.

What about the “FU 2” value ([1]; chemoattractant 10% FBS) of the same compound?
Its value is 329.28 FU.

What about the “FU 3” value ([1]; chemoattractant 10% FBS) of the same compound?
Its value is 354.03 FU.

What about the “% increase (migration vs saline)” value ([1]; chemoattractant SDF-1) of the same compound?
The value was 1.2%.

And the “mean FU” value ([1]; chemoattractant SDF-1 (final 50 ng/ml))?
The value was 255.86 FU.

And the “FU 1” value ([1]; chemoattractant SDF-1)?
Its value is 215.24 FU.

And the “FU 2” value ([1]; chemoattractant SDF-1)?
Its value is 267.07 FU.

What about the “FU 3” value ([1]; chemoattractant SDF-1) of the same compound?
Its value is 285.27 FU.

And the “% increase (migration vs saline)” value ([1]; chemoattractant TGF B3)?
Its value is −6.8%.

What about the “mean FU” value ([1]; chemoattractant TGF B3 (final 10 ng/ml)) of the same compound?
Its value is 286.77 FU.

What about the “FU 1” value ([1]; chemoattractant TGF B3) of the same compound?
Its value is 274.97 FU.

What about the “FU 2” value ([1]; chemoattractant TGF B3) of the same compound?
Its value is 288.44 FU.

And the “FU 3” value ([1]; chemoattractant TGF B3)?
Its value is 296.9 FU.

What about the “2-^ΔΔCp vs saline, CXCR4” value (CXCR4) of the same compound?
Its value is 8.369.

What about the “regulation, CXCR4” value (CXCR4) of the same compound?
Its value is 8.37.

And the “ΔΔCp vs saline, CXCR4” value (CXCR4)?
The value was −3.065.

And the “ΔCp, CXCR4” value (CXCR4; hanging drop culture)?
Its value is 11.19.
